The values that follow come from publication PMC5223195, “Novel long-chain compounds with both immunomodulatory and MenA inhibitory activities against Staphylococcus aureus and its biofilm” (Scientific Reports, 2017).

Converted amounts (≈) assume the structure as drawn. Like-named read-outs stand apart in the source and are kept apart here. Bounds are passed on as bounds.

The subject of experiment [1] is Enterococcus faecalis. Kind of experiment: MIC against Enterococcus faecalis. Type of experiment: cell-based. To be noted: read-out: MIC, EF.
Experiment [2] relates to MRSA USA100. Briefly: MIC against MRSA USA100. The format is cell-based, Staphylococcus aureus. To be noted: Staphylococcus aureus, read-out: MIC, Staphylococcus aureus isolate USA100. The protocol: (§1) 96-well plates were seeded with 5 × 10^5 CFU/mL in a volume of 100 μL of tryptic soy broth (TSB) per well for Staphylococcus aureus assays. Compounds were dissolved in DMSO and serially diluted as 1:2 dilutions to give the final concentration ranging from 0.25 to 128 μg/mL per well. […] Plates were incubated at 37 °C for 18–20 hours and MIC was determined by reading OD625. For M.avium and M.abscessus, 7H9 broth media was used for determination of MICs. The final concentration was 5 × 10^5 CFU/mL in each well. The plate was incubated at 37 °C for 7–8 days and MICs were determined using a Tecan microplate reader (OD625) and resazurin reduction assay.

Experiment [3] concerns MRSA USA300. Kind of experiment: MIC against MRSA USA300. The format is cell-based, Staphylococcus aureus. The conditions noted are these: Staphylococcus aureus, read-out: MIC, Staphylococcus aureus isolate USA300. The protocol: as §1
In experiment [4] the test system is MRSA USA200. Kind of experiment: MIC against MRSA USA200. Type of experiment: cell-based, Staphylococcus aureus. The conditions noted are these: for MIC: Staphylococcus aureus, read-out: MIC, Staphylococcus aureus isolate USA200. How it is done: as §1
Experiment [5] has as its system MRSA USA400. Briefly: MIC against MRSA USA400. Type of experiment: cell-based, Staphylococcus aureus. The conditions noted are these: Staphylococcus aureus, read-out: MIC, Staphylococcus aureus isolate USA400. How it is done: as §1
The subject of experiment [6] is MRSA USA700. Briefly: MIC against MRSA USA700. The format is cell-based, Staphylococcus aureus. The conditions noted are these: for MIC: Staphylococcus aureus, read-out: MIC, Staphylococcus aureus isolate USA700. The protocol:
as §1

The test system of experiment [7] is Methicillin susceptible Staphylococcus aureus. Briefly: MIC against MSSA. The format is cell-based. To be noted: MSSA. How it is done: as §1
Experiment [8] has as its system MRSA USA800. Briefly: MIC against MRSA USA800. The format is cell-based, Staphylococcus aureus. The conditions noted are these: Staphylococcus aureus; TSB, 37 °C, 18–20 hours; read-out: MIC, Staphylococcus aureus isolate USA800. The protocol: as §1
Experiment [9] has as its system MRSA USA500. Briefly: MIC against MRSA USA500. The format is cell-based, Staphylococcus aureus. To be noted: Staphylococcus aureus; TSB, 37 °C, 18–20 hours; read-out: MIC, Staphylococcus aureus isolate USA500. How it is done: as §1
The subject of experiment [10] is Pseudomonas aeruginosa. Kind of experiment: MIC against Pseudomonas aeruginosa. The format is cell-based. To be noted: read-out: MIC, PA.
Experiment [11] deals with MRSA (USA700) biofilms. Kind of experiment: S. aureus biofilm assay. The format is cell-based, Staphylococcus aureus. The protocol: Biofilm assays were performed using a method previously described with modification. A 96 well plate was precoated with 20% human plasma (Sigma) in 0.05 M carbonate buffer, pH 9.6 at 4 °C for 24 h. MRSA was cultured overnight in TSB containing 3% NaCl and 0.5% glucose. The overnight culture was diluted with TSB/NaCl/Glucose media until OD600 reached 0.05. After carefully removing the liquid from the 96 well plate, 200 μL of MRSA dilution was added to each well in triplicate. The plate was incubated at 37 °C for 24 h and carefully washed with PBS twice. MH broth (200 μL) containing a compound was added to each well in triplicate and incubated at 37 °C for 24 h. After washing with PBS twice, the biofilm was scraped in 100 μL of PBS and serially diluted and plated on TSA to determine CFU.

The test system of experiment [12] is MRSA (USA200). Briefly: Colony morphology / small colony variant formation on TSA. The format is cell-based, Staphylococcus aureus. To be noted: USA200 on TSA, 37 °C, up to 96 h (3a 4–16 μg/mL), 72 h (7c, rifampin). How it is done: MRSA was streaked and then incubated on tryptic soy agar (TSA) containing 0, 2, 4, 8 or 16 μg/mL of inhibitor 3a or 4 μg/mL of 7C or 0.025 μg/mL of rifampin at 37 °C for 96 h. MK-4 (100 μg/mL) was supplemented in TSA containing 8 μg/mL of 3a for the rescue experiment.

`Brc1ccc(CCNCCCCCCCCOc2ccc3cc(Br)ccc3c2)cc1` [5c]: the minimal inhibitory concentration (MIC) (commonly the least concentration at which growth counts as inhibited) came out at 8 µg/mL (≈ 15 µM) in experiment [1]; 32 µg/mL (≈ 60 µM) in [2] (TSB, 37 °C, 18–20 hours); 32 µg/mL (≈ 60 µM) in experiment [3] (TSB, 37 °C, 18–20 hours); 8 µg/mL (≈ 15 µM) in experiment [4] (TSB, 37 °C, 18–20 hours); 16 µg/mL (≈ 30 µM) in experiment [5] (TSB, 37 °C, 18–20 hours); 32 µg/mL (≈ 60 µM) in experiment [6] (TSB, 37 °C, 18–20 hours).
As to `Brc1ccc2cc(OCCCCCCCCN3CCCCC3)ccc2c1` [5d], the results for the MIC in [2], in experiment [5] and in experiment [6] were 8 µg/mL (≈ 19.1 µM), 4 µg/mL (≈ 9.56 µM) and 16 µg/mL (≈ 38.2 µM), respectively.
As to `C=CCN(C)CCCCCCCCOc1ccc2cc(Br)c(OCc3ccccc3)cc2c1` [6a], the MIC in experiment [7] was 16 µg/mL (≈ 31.3 µM); in experiment [1], 4 µg/mL (≈ 7.84 µM); in [4] (TSB, 37 °C, 18–20 hours), 8 µg/mL (≈ 15.7 µM); in experiment [5] (TSB, 37 °C, 18–20 hours), 8 µg/mL (≈ 15.7 µM); in experiment [8] it was 64 µg/mL (≈ 125 µM); in experiment [6] (TSB, 37 °C, 18–20 hours) it was 16 µg/mL (≈ 31.3 µM).
Consider `Fc1ccc(CCNCCCCCCCCOc2ccc3cc(Br)c(OCc4ccccc4)cc3c2)cc1` [6c], for which the MIC was greater than 128 µg/mL in experiment [9]; greater than 128 µg/mL in experiment [7]; greater than 128 µg/mL in [2] (TSB, 37 °C, 18–20 hours); greater than 128 µg/mL in [5] (TSB, 37 °C, 18–20 hours); greater than 128 µg/mL in experiment [8]; greater than 128 µg/mL in experiment [6] (TSB, 37 °C, 18–20 hours).
`Clc1ccc(CCNCCCCCCCCOc2ccc3cc(Br)c(OCc4ccccc4)cc3c2)cc1` [6d]: the minimum inhibitory concentration (MIC) in [7] is 64 µg/mL (≈ 108 µM); in [1] it was 16 µg/mL (≈ 26.9 µM); in experiment [3] (TSB, 37 °C, 18–20 hours) it was greater than 128 µg/mL; in [5] (TSB, 37 °C, 18–20 hours), greater than 128 µg/mL; in [6] (TSB, 37 °C, 18–20 hours), 64 µg/mL (≈ 108 µM).
In the case of `Brc1ccc(CCNCCCCCCCCOc2ccc3cc(Br)c(OCc4ccccc4)cc3c2)cc1` [6e], the MIC in experiment [3] is greater than 128 µg/mL; in experiment [4], 128 µg/mL (≈ 200 µM); in experiment [6], 128 µg/mL (≈ 200 µM).
Consider `C=CCN(C)CCCOc1ccc2ccc(OCCCN(C)CC=C)cc2c1` [7a], for which the “MIC, Staphylococcus aureus isolate USA200” value in [4] (TSB, 37 °C, 18–20 hours) was greater than 128 µg/mL. In experiment [6] (TSB, 37 °C, 18–20 hours), the “MIC, Staphylococcus aureus isolate USA700” value came to 128 µg/mL (≈ 335 µM).
Turning to `c1cc2ccc(OCCCN3CCCCC3)cc2cc1OCCCN1CCCCC1` [7b], the MIC in experiment [6] is greater than 128 µg/mL.
For the compound `Fc1ccc(N2CCN(CCCOc3ccc4ccc(OCCCN5CCN(c6ccc(F)cc6)CC5)cc4c3)CC2)cc1` [7d, 2,7-bis(3-(4-(4-fluorophenyl)piperazin-1-yl)propoxy)naphthalene], the MIC in [6] is greater than 128 µg/mL.
In the case of `CC(=O)NC[C@H]1CN(c2ccc(N3CCOCC3)c(F)c2)C(=O)O1` [Linezolid, reference compound], the MIC in experiment [9] is 0.5 µg/mL (≈ 1.48 µM); in [7] it was 1 µg/mL (≈ 2.96 µM); in [1], greater than 32 µg/mL; in experiment [10], 1 µg/mL (≈ 2.96 µM); in [2] (TSB, 37 °C, 18–20 hours), 0.5 µg/mL (≈ 1.48 µM); in [3] (TSB, 37 °C, 18–20 hours), 1 µg/mL (≈ 2.96 µM). For the same compound, the minimum inhibitory concentration (MIC) is 1 µg/mL (≈ 2.96 µM) in experiment [4] (TSB, 37 °C, 18–20 hours); 1 µg/mL (≈ 2.96 µM) in experiment [5] (TSB, 37 °C, 18–20 hours); 0.5 µg/mL (≈ 1.48 µM) in experiment [8]; 1 µg/mL (≈ 2.96 µM) in [6] (TSB, 37 °C, 18–20 hours).
As to `CN(C)c1ccc(O)c2c1C[C@H]1C[C@H]3[C@H](N(C)C)C(O)=C(C(N)=O)C(=O)[C@@]3(O)C(O)=C1C2=O` [Minomycin, Minocycline, reference compound], the MIC is less than 0.06 µg/mL in experiment [9]; 16 µg/mL (≈ 35 µM) in [1]; 0.5 µg/mL (≈ 1.09 µM) in experiment [5] (TSB, 37 °C, 18–20 hours). In addition, the “MRSA biofilm growth compared to the positive control” value in experiment [11] (USA700 biofilm, 0.5 and 0.03 mg/mL, 24 h) was “significant decrease”. In addition, in experiment [11] (USA 700 biofilm, 8300 × MIC), the “fold reduction of MRSA biofilm compared to the positive control” value is 10^6 fold. Moreover, the “MIC, Staphylococcus aureus isolate USA700” value in [6] (TSB, 37 °C, 18–20 hours) was less than 0.06 µg/mL.
In the case of `CO[C@H]1/C=C/O[C@@]2(C)Oc3c(C)c(O)c4c(O)c(c(/C=N/N5CCN(C)CC5)c(O)c4c3C2=O)NC(=O)/C(C)=C\C=C\[C@H](C)[C@H](O)[C@@H](C)[C@@H](O)[C@@H](C)[C@H](OC(C)=O)[C@@H]1C` [rifampin, reference compound], the “induction of small colony variants (SCV)” value in experiment [12] is “showed growth of SCV”.
